What all share (test): relative viability (nuclei count vs DMSO), 5 days (fraction); higher = more cells survive
Compound in experiment [1]: O=C1NC(=O)[C@@H](c2cn3c4c(cccc24)CCC3)[C@@H]1c1c[nH]c2ccccc12 [Tivantinib] + CS(=O)(=O)N1CCN(Cc2cc3nc(-c4cccc5[nH]ncc45)nc(N4CCOCC4)c3s2)CC1 [Pictilisib] (partner 1 µM)
The method, boiled down:
(§1)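 Lung cancer cell lines were seeded in 1536-well plates and dosed by pin tool the next day, with either a single drug or a fixed anchor-drug dose combined with five library-drug doses (not always all listed) spaced in √10 steps. Five days later, one step fixed the cells and stained their nuclei (final 0.05% Triton X-100, 1% formaldehyde, 1 ug/ml Hoechst), and nuclei were counted on 4× images. Relative viability is the nuclei count in treated wells divided by the count in vehicle wells, and each value is the median of duplicate plates.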

Compound in experiment [2]: O=C1NC(=O)[C@@H](c2cn3c4c(cccc24)CCC3)[C@@H]1c1c[nH]c2ccccc12 [Tivantinib] + O=C(CCCCCCC(=O)Nc1ccccc1)NO [Vorinostat] (partner 1 µM)
The method, boiled down:
as §1

Compound in experiment [3]: CC1(COc2ccc3c(c2)ncn3-c2ccc3cccc(N4CCC(N)CC4)c3n2)COC1 [Crenolanib] + N=C(N)NC(=N)NCCc1ccccc1 [Phenformin] (partner 250 µM)
In outline: as §1

Compound in experiment [4]: O=C1NC(=O)[C@@H](c2cn3c4c(cccc24)CCC3)[C@@H]1c1c[nH]c2ccccc12 [Tivantinib] + CC(=O)Nc1cccc(-n2c(=O)n(C3CC3)c(=O)c3c(Nc4ccc(I)cc4F)n(C)c(=O)c(C)c32)c1 [Trametinib] (partner 0.02 µM)
In outline: as §1

For NCI-H1993, the relative viability in experiment [1] (first compound 0.01 µM) turned out to be 0.817; in experiment [1] (first compound 0.03162 µM) it was 0.857; in experiment [1] (first compound 0.1 µM), 0.843; in experiment [1] (first compound 0.3162 µM), 0.902; in experiment [2] (first compound 0.01 µM), 0.84; in experiment [2] (first compound 0.03162 µM), 0.704. The relative viability in experiment [2] (first compound 0.1 µM) was found to be 0.728; in experiment [2] (first compound 0.3162 µM) it was 0.66; in experiment [3] (first compound 0.01 µM) it was 0.486; in experiment [3] (first compound 0.03162 µM), 0.513; in experiment [3] (first compound 0.1 µM), 0.493; in experiment [3] (first compound 0.3162 µM), 0.533. Also, the relative viability in experiment [3] (first compound 1 µM) was determined as 0.499; in experiment [4] (first compound 0.01 µM) it was 0.545; in experiment [4] (first compound 0.03162 µM), 0.462; in experiment [4] (first compound 0.1 µM), 0.565; in experiment [4] (first compound 0.3162 µM), 0.437.

As for NCI-H2009, the relative viability is 0.875 in experiment [1] (first compound 0.01 µM); 0.464 in experiment [1] (first compound 0.03162 µM); 0.767 in experiment [1] (first compound 0.1 µM); 0.763 in experiment [1] (first compound 0.3162 µM); 0.735 in experiment [2] (first compound 0.01 µM); 0.672 in experiment [2] (first compound 0.03162 µM). Moreover, the relative viability in experiment [2] (first compound 0.1 µM) stood at 0.746; in experiment [2] (first compound 0.3162 µM) it was 0.715; in experiment [3] (first compound 0.01 µM), 0.497; in experiment [3] (first compound 0.03162 µM) it was 0.488; in experiment [3] (first compound 0.1 µM), 0.46; in experiment [3] (first compound 0.3162 µM), 0.4. The relative viability turned out to be 0.408 in experiment [3] (first compound 1 µM); 0.328 in experiment [4] (first compound 0.01 µM); 0.246 in experiment [4] (first compound 0.03162 µM); 0.273 in experiment [4] (first compound 0.1 µM); 0.238 in experiment [4] (first compound 0.3162 µM).

On to NCI-H2023, for which the relative viability turned out to be 0.246 in experiment [1] (first compound 0.01 µM); 0.225 in experiment [1] (first compound 0.03162 µM); 0.218 in experiment [1] (first compound 0.1 µM); 0.202 in experiment [1] (first compound 0.3162 µM); 0.698 in experiment [2] (first compound 0.01 µM); 0.676 in experiment [2] (first compound 0.03162 µM). Further, the relative viability is 0.62 in experiment [2] (first compound 0.1 µM); 0.516 in experiment [2] (first compound 0.3162 µM); 0.407 in experiment [3] (first compound 0.01 µM); 0.415 in experiment [3] (first compound 0.03162 µM); 0.409 in experiment [3] (first compound 0.1 µM); 0.441 in experiment [3] (first compound 0.3162 µM). Further, the relative viability is 0.376 in experiment [3] (first compound 1 µM); 0.593 in experiment [4] (first compound 0.01 µM); 0.551 in experiment [4] (first compound 0.03162 µM); 0.433 in experiment [4] (first compound 0.1 µM); 0.414 in experiment [4] (first compound 0.3162 µM).

Take NCI-H2085: the relative viability worked out at 0.477 in experiment [1] (first compound 0.01 µM); 0.471 in experiment [1] (first compound 0.03162 µM); 0.392 in experiment [1] (first compound 0.1 µM); 0.515 in experiment [1] (first compound 0.3162 µM); 0.805 in experiment [2] (first compound 0.01 µM); 0.673 in experiment [2] (first compound 0.03162 µM). Besides, the relative viability came to 0.752 in experiment [2] (first compound 0.1 µM); 0.669 in experiment [2] (first compound 0.3162 µM); 0.742 in experiment [3] (first compound 0.01 µM); 0.745 in experiment [3] (first compound 0.03162 µM); 0.63 in experiment [3] (first compound 0.1 µM); 0.7 in experiment [3] (first compound 0.3162 µM). Besides, the relative viability in experiment [3] (first compound 1 µM) turned out to be 0.631; in experiment [4] (first compound 0.01 µM), 0.62; in experiment [4] (first compound 0.03162 µM), 0.484; in experiment [4] (first compound 0.1 µM), 0.544; in experiment [4] (first compound 0.3162 µM), 0.516.

For NCI-H2087, the relative viability in experiment [1] (first compound 0.01 µM) was found to be 0.958; in experiment [1] (first compound 0.03162 µM) it was 0.757; in experiment [1] (first compound 0.1 µM), 0.909; in experiment [1] (first compound 0.3162 µM), 0.896; in experiment [2] (first compound 0.01 µM) it was 0.724; in experiment [2] (first compound 0.03162 µM), 0.672. Moreover, the relative viability in experiment [2] (first compound 0.1 µM) stood at 0.722; in experiment [2] (first compound 0.3162 µM) it was 0.477; in experiment [3] (first compound 0.01 µM) it was 0.466; in experiment [3] (first compound 0.03162 µM) it was 0.488; in experiment [3] (first compound 0.1 µM) it was 0.434; in experiment [3] (first compound 0.3162 µM), 0.524. Further, the relative viability is 0.471 in experiment [3] (first compound 1 µM); 0.217 in experiment [4] (first compound 0.01 µM); 0.184 in experiment [4] (first compound 0.03162 µM); 0.227 in experiment [4] (first compound 0.1 µM); 0.172 in experiment [4] (first compound 0.3162 µM).

For the cell line NCI-H2126, the relative viability amounted to 0.51 in experiment [1] (first compound 0.01 µM); 0.446 in experiment [1] (first compound 0.03162 µM); 0.496 in experiment [1] (first compound 0.1 µM); 0.478 in experiment [1] (first compound 0.3162 µM); 0.723 in experiment [2] (first compound 0.01 µM); 0.482 in experiment [2] (first compound 0.03162 µM). In addition, the relative viability in experiment [2] (first compound 0.1 µM) came to 0.772; in experiment [2] (first compound 0.3162 µM), 0.512; in experiment [3] (first compound 0.01 µM) it was 0.533; in experiment [3] (first compound 0.03162 µM), 0.536; in experiment [3] (first compound 0.1 µM) it was 0.51; in experiment [3] (first compound 0.3162 µM), 0.51. In addition, the relative viability worked out at 0.455 in experiment [3] (first compound 1 µM); 0.522 in experiment [4] (first compound 0.01 µM); 0.549 in experiment [4] (first compound 0.03162 µM); 0.573 in experiment [4] (first compound 0.1 µM); 0.545 in experiment [4] (first compound 0.3162 µM).

Take NCI-H2170: the relative viability in experiment [1] (first compound 0.01 µM) worked out at 0.298; in experiment [1] (first compound 0.03162 µM), 0.222; in experiment [1] (first compound 0.1 µM) it was 0.33; in experiment [2] (first compound 0.01 µM), 0.852; in experiment [2] (first compound 0.03162 µM), 0.812; in experiment [2] (first compound 0.1 µM), 0.74. The relative viability in experiment [3] (first compound 0.01 µM) was determined as 0.467; in experiment [3] (first compound 0.03162 µM), 0.41; in experiment [3] (first compound 0.1 µM), 0.387; in experiment [3] (first compound 0.3162 µM), 0.326; in experiment [3] (first compound 1 µM), 0.387; in experiment [4] (first compound 0.01 µM), 0.934. Moreover, the relative viability came to 0.847 in experiment [4] (first compound 0.03162 µM) and 0.844 in experiment [4] (first compound 0.1 µM).

For NCI-H2228, the relative viability in experiment [1] (first compound 0.01 µM) came out at 0.405; in experiment [1] (first compound 0.03162 µM), 0.345; in experiment [1] (first compound 0.1 µM), 0.458; in experiment [1] (first compound 0.3162 µM) it was 0.413; in experiment [2] (first compound 0.01 µM), 0.639; in experiment [2] (first compound 0.03162 µM), 0.527. In addition, the relative viability in experiment [2] (first compound 0.1 µM) was determined as 0.651; in experiment [2] (first compound 0.3162 µM), 0.733; in experiment [3] (first compound 0.01 µM), 0.313; in experiment [3] (first compound 0.03162 µM) it was 0.487; in experiment [3] (first compound 0.1 µM) it was 0.324; in experiment [3] (first compound 0.3162 µM), 0.388. Further, the relative viability in experiment [3] (first compound 1 µM) came out at 0.317; in experiment [4] (first compound 0.01 µM), 0.608; in experiment [4] (first compound 0.03162 µM), 0.396; in experiment [4] (first compound 0.1 µM), 0.494; in experiment [4] (first compound 0.3162 µM), 0.227.

With NCI-H2347, the relative viability in experiment [1] (first compound 0.01 µM) was found to be 0.986; in experiment [1] (first compound 0.03162 µM), 0.724; in experiment [1] (first compound 0.1 µM) it was 0.514; in experiment [1] (first compound 0.3162 µM), 0.525; in experiment [2] (first compound 0.01 µM), 0.622; in experiment [2] (first compound 0.03162 µM), 0.436. For the same cell line, the relative viability was found to be 0.518 in experiment [2] (first compound 0.1 µM); 0.498 in experiment [2] (first compound 0.3162 µM); 0.381 in experiment [3] (first compound 0.01 µM); 0.546 in experiment [3] (first compound 0.3162 µM); 0.469 in experiment [3] (first compound 1 µM); 0.246 in experiment [4] (first compound 0.01 µM). In addition, the results for the relative viability in experiment [4] (first compound 0.03162 µM), in experiment [4] (first compound 0.1 µM) and in experiment [4] (first compound 0.3162 µM) were 0.316, 0.231 and 0.248, respectively.

For the origin of these results see the supplement of paper PMC10307832.
